Patent US10590113B2, “6-hydroxy-4-oxo-1,4-dihydropyrimidine-5-carboxamides as APJ agonists” (priority 2016, dated 2020)
Where two headings read alike, the source gives them in different places.

Molecular target: T1, human APJ receptor (Homo sapiens, UniProt P35414)
T1 construct: expressed in transfected cells; host or cells: HEK293
T1 sequence (P35414 1-380): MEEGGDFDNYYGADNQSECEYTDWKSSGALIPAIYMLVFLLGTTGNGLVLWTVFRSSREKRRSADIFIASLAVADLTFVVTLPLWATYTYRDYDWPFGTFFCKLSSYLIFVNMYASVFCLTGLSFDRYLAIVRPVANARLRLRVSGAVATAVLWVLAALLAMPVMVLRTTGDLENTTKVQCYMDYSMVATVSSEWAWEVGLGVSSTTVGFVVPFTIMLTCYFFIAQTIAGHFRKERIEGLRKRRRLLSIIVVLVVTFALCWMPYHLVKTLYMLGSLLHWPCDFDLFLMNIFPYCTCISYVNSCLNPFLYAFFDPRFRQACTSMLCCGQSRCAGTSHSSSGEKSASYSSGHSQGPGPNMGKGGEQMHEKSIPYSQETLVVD
Assay: Intracellular cAMP Accumulation Assay (APJ hcAMP, HTRF)
Type: cell-based
Settings: human APJ, read-out: hAPJ cAMP EC50 Potency range
In short: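 Stably transfected HEK293 cells (5,000/well) incubated 30 min at room temperature with serially diluted compound, […] and 2 μM forskolin. cAMP measured by HTRF after 60 min with detection reagents, quantified against a cAMP standard curve; EC50 from variable-slope sigmoidal fit of inhibition of forskolin-stimulated cAMP.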

[1] = intracellular cAMP accumulation
[2] = cAMP accumulation, potency range class

SMILES | EC50 [1] [nM] | EC50 [2] [nM]
CCCCc1nc(=O)c(C(=O)N2CC[C@@H](c3ccccc3)C2)c(O)n1[C@@H](COC)c1ccccc1 [Example 127, 2-butyl-6-hydroxy-3-[(1R)-2-methoxy-1-phenylethyl]-5-[(3S)-3-phenylpyrrolidine-1-carbonyl]-3,4-dihydropyrimidin-4-one] | 10 to 100 | 
CCc1cccc(CC)c1-n1c(-c2ccn(CC)n2)nc(=O)c(C(=O)N2CCC(c3ncc(Cl)cc3F)C2)c1O (single isomer, unassigned) [Example 311, 5-[3-(5-chloro-3-fluoropyridin-2-yl)pyrrolidine-1-carbonyl]-1-(2,6-diethylphenyl)-2-(1-ethyl-1H-pyrazol-3-yl)-6-hydroxy-1,4-dihydropyrimidin-4-one] |  | 0.01 to 10
COc1cccc(OC)c1-n1c(-c2cccc(Cl)c2)nc(=O)c(C(=O)N2CCC(c3ncc(F)cc3F)C2)c1O (single isomer, unassigned) [Example 238, 2-(3-chlorophenyl)-5-[3-(3,5-difluoropyridin-2-yl)pyrrolidine-1-carbonyl]-1-(2,6-dimethoxyphenyl)-6-hydroxy-1,4-dihydropyrimidin-4-one] |  | 0.01 to 10
COc1cccc(OC)c1-n1c(COC(C)C)nc(=O)c(C(=O)N2CCC(c3ccccc3C(F)(F)F)C2)c1O (single isomer, unassigned) [Example 101, 1-(2,6-dimethoxyphenyl)-6-hydroxy-2-[(propan-2-yloxy)methyl]-5-{3-[2-(trifluoromethyl)phenyl]pyrrolidine-1-carbonyl}-1,4-dihydropyrimidin-4-one] | 0.01 to 10 | 
COc1cccc(OC)c1-n1c(COC(C)C)nc(=O)c(C(=O)N2CCC(c3ccccc3Cl)C2)c1O (single isomer, unassigned) [Example 92, 5-[3-(2-chlorophenyl)pyrrolidine-1-carbonyl]-1-(2,6-dimethoxyphenyl)-6-hydroxy-2-[(propan-2-yloxy)methyl]-1,4-dihydropyrimidin-4-one] | 0.01 to 10 | 
COc1cccc(OC)c1-n1c(-c2ccc(Cl)cn2)nc(=O)c(C(=O)N2CCC(c3ccc(F)cc3F)C2)c1O (single isomer, unassigned) [Example 287, 2-(5-chloropyridin-2-yl)-5-[3-(2,4-difluorophenyl)pyrrolidine-1-carbonyl]-1-(2,6-dimethoxyphenyl)-6-hydroxy-1,4-dihydropyrimidin-4-one] |  | 0.01 to 10
CC[C@@H](c1cc(F)cc(F)c1)n1c(-c2ccn(C)n2)nc(=O)c(C(=O)N2CCC(c3ccccc3F)C2)c1O (single isomer, unassigned) [Example 193] | 0.01 to 10 | 
COc1cccc(-c2nc(=O)c(C(=O)N3CCC(c4ncccc4F)C3)c(O)n2-c2c(OC)cccc2OC)c1 (single isomer, unassigned) [Example 245, 1-(2,6-dimethoxyphenyl)-5-[3-(3-fluoropyridin-2-yl)pyrrolidine-1-carbonyl]-6-hydroxy-2-(3-methoxyphenyl)-1,4-dihydropyrimidin-4-one] |  | 0.01 to 10
CCCCc1nc(=O)c(C(=O)N2CC(c3cccc(Cl)c3)C2)c(O)n1-c1c(OC)cccc1OC [Example 88, 2-butyl-5-[3-(3-chlorophenyl)azetidine-1-carbonyl]-3-(2,6-dimethoxyphenyl)-6-hydroxy-3,4-dihydropyrimidin-4-one] | 0.01 to 10 | 
CCCCc1nc(=O)c(C(=O)N2CC[C@@H](c3ccccc3)C2)c(O)n1[C@@H](CCC)c1ccccc1 [Example 153, 2-butyl-6-hydroxy-3-[(1S)-1-phenylbutyl]-5-[(3S)-3-phenylpyrrolidine-1-carbonyl]-3,4-dihydropyrimidin-4-one] | 10 to 100 | 
CC[C@@H](c1ccccc1)n1c(-c2nc(C)cs2)nc(=O)c(C(=O)N2CCC(c3ncc(Cl)cc3F)C2)c1O (single isomer, unassigned) [Example 323] |  | 0.01 to 10
CCc1cccc(CC)c1-n1c(-c2csc(C)n2)nc(=O)c(C(=O)N2CC[C@H](c3ccccc3)C2)c1O [Example 301, 1-(2,6-diethylphenyl)-6-hydroxy-2-(2-methyl-1,3-thiazol-4-yl)-5-[(3R)-3-phenylpyrrolidine-1-carbonyl]-1,4-dihydropyrimidin-4-one] |  | 0.01 to 10
CCOCc1nc(=O)c(C(=O)N2CCC(c3cccc(F)c3)C2)c(O)n1-c1c(OC)cccc1OC (single isomer, unassigned) [Example 83, 1-(2,6-dimethoxyphenyl)-2-(ethoxymethyl)-5-[3-(3-fluorophenyl)pyrrolidine-1-carbonyl]-6-hydroxy-1,4-dihydropyrimidin-4-one] | 0.01 to 10 | 
COc1cccc(OC)c1-n1c(COC(C)C)nc(=O)c(C(=O)N2CCC(c3c(F)cccc3F)C2)c1O (single isomer, unassigned) [Example 166, 5-[3-(2,6-difluorophenyl)pyrrolidine-1-carbonyl]-1-(2,6-dimethoxyphenyl)-6-hydroxy-2-[(propan-2-yloxy)methyl]-1,4-dihydropyrimidin-4-one] | 0.01 to 10 | 
CCCCc1nc(=O)c(C(=O)N2CC[C@H](c3ccccc3)C2)c(O)n1[C@@H](COC)c1ccccc1 [Example 116, 2-butyl-6-hydroxy-3-[(1R)-2-methoxy-1-phenylethyl]-5-[(3R)-3-phenylpyrrolidine-1-carbonyl]-3,4-dihydropyrimidin-4-one] | 0.01 to 10 | 
CCOCc1nc(=O)c(C(=O)N2CCC(c3cccc(F)c3)C2)c(O)n1-c1c(OC)cccc1OC (single isomer, unassigned) [Example 84, 1-(2,6-dimethoxyphenyl)-2-(ethoxymethyl)-5-[3-(3-fluorophenyl)pyrrolidine-1-carbonyl]-6-hydroxy-1,4-dihydropyrimidin-4-one] | 0.01 to 10 | 
COc1cccc(OC)c1-n1c(-c2cncc(C)c2)nc(=O)c(C(=O)N2CCC(c3ccc(F)cc3)C2)c1O (single isomer, unassigned) [Example 232, 1-(2,6-dimethoxyphenyl)-5-[3-(4-fluorophenyl)pyrrolidine-1-carbonyl]-6-hydroxy-2-(5-methylpyridin-3-yl)-1,4-dihydropyrimidin-4-one] |  | 0.01 to 10
COc1cccc(-c2nc(=O)c(C(=O)N3CCC(c4ncc(Cl)cc4F)C3)c(O)n2-c2c(OC)cccc2OC)c1 (single isomer, unassigned) [Example 261, 5-[3-(5-chloro-3-fluoropyridin-2-yl)pyrrolidine-1-carbonyl]-1-(2,6-dimethoxyphenyl)-6-hydroxy-2-(3-methoxyphenyl)-1,4-dihydropyrimidin-4-one] |  | 0.01 to 10
CCn1ccc(-c2nc(=O)c(C(=O)N3CCC(c4ncc(Cl)cc4F)C3)c(O)n2[C@H](c2cc(F)cc(F)c2)C(C)C)n1 (single isomer, unassigned) [Example 326] |  | 0.01 to 10
COc1cccc(OC)c1-n1c(COC(C)C)nc(=O)c(C(=O)N2CCC(c3ccccc3C(F)(F)F)C2)c1O (single isomer, unassigned) [Example 99, 1-(2,6-dimethoxyphenyl)-6-hydroxy-2-[(propan-2-yloxy)methyl]-5-{3-[2-(trifluoromethyl)phenyl]pyrrolidine-l-carbonyl}-1,4-dihydropyrimidin-4-one] | 0.01 to 10 | 
COc1cccc(OC)c1-n1c(CCC2CC2)nc(=O)c(C(=O)N2CCC(c3ncccc3F)C2)c1O (single isomer, unassigned) [Example 178, 2-(2-cyclopropylethyl)-1-(2,6-dimethoxyphenyl)-5-[3-(3-fluoropyridin-2-yl)pyrrolidine-1-carbonyl]-6-hydroxy-1,4-dihydropyrimidin-4-one] | 0.01 to 10 | 
COc1cccc(OC)c1-n1c(-c2ccc(F)cc2)nc(=O)c(C(=O)N2CCC(c3ccncc3)C2)c1O (single isomer, unassigned) [Example 224, 1-(2,6-dimethoxyphenyl)-2-(4-fluorophenyl)-6-hydroxy-5-[3-(pyridin-4-yl)pyrrolidine-1-carbonyl]-1,4-dihydropyrimidin-4-one] |  | 10 to 100
CC[C@@H](c1cc(F)cc(F)c1)n1c(-c2ccn(CC)n2)nc(=O)c(C(=O)N2CCC(c3ncc(F)cc3F)C2)c1O (single isomer, unassigned) [Example 192] | 0.01 to 10 | 
COc1cccc(OC)c1-n1c(COC(C)C)nc(=O)c(C(=O)N2CCC(c3ccc(F)cc3F)C2)c1O (single isomer, unassigned) [Example 162, 5-[3-(2,4-difluorophenyl)pyrrolidine-1-carbonyl]-1-(2,6-dimethoxyphenyl)-6-hydroxy-2-[(propan-2-yloxy)methyl]-1,4-dihydropyrimidin-4-one] | 0.01 to 10 | 
CCc1cccc(CC)c1-n1c(-c2ccn(C)n2)nc(=O)c(C(=O)N2CC[C@H](c3ccccc3)C2)c1O [Example 283, 1-(2,6-diethylphenyl)-6-hydroxy-2-(1-methyl-1H-pyrazol-3-yl)-5-[(3R)-3-phenylpyrrolidine-1-carbonyl]-1,4-dihydropyrimidin-4-one] |  | 0.01 to 10
COc1cccc(OC)c1-n1c(-c2nc(C)cs2)nc(=O)c(C(=O)N2CCC(c3c(F)cccc3F)C2)c1O (single isomer, unassigned) [Example 271, 5-[3-(2,6-difluorophenyl)pyrrolidine-1-carbonyl]-1-(2,6-dimethoxyphenyl)-6-hydroxy-2-(4-methyl-1,3-thiazol-2-yl)-1,4-dihydropyrimidin-4-one] |  | 0.01 to 10
